Results on two compounds are retold here after patent US20060148903A1, “Capsaicinoid gel formulation and uses thereof” (AlgoRx Pharmaceuticals, Inc., priority 2004, published 2006).

The nature of series [1]: physchem. Type of series: physicochemical. The conditions noted are these: 25 °C, thermodynamic from solid. Here is the method: A known weight of capsaicin drug substance was weighed into a 4 ml Wheaton vial. A known volume of solvent was added and the sample placed in an ultrasonic bath for a minimum of 5 minutes. The temperature of the water bath was kept <25° C. at all times. Samples were transferred to a shaker bath at 25° C./60% RH and left for a minimum of 5 days. The samples were inspected and samples showing saturation (excess solid material remaining) removed for analysis. An additional known weight of capsaicin was added to the remaining samples and they were returned to the shaker bath. This was repeated until all samples had reached saturation.
Samples were filtered through a 0.45 μm PVDF Millipore Millex-HV hydrophilic disposable filter into a clean Wheaton vial. Sample absorbance was determined at 280 nm using 2 mm matched cuvettes. Samples were read against their equivalent solvent blank. Where necessary samples were diluted with methanol and these samples read against a methanol blank.
The concentration of each solution was determined by comparison with the absorbance of a capsaicin reference standard solution of known concentration.
Tween 80 results were very promising therefore the two materials were combined to investigate any possible synergistic effect on capsaicin solubility. […]

Series [2] in a line: physchem. It counts as physicochemical. Particulars: for solubility at 7 days: 2 °C; for solubility at 7 days / solubility at 4 days: thermodynamic from solid; for solubility at 4 days: 25 °C; for Indicative solubility of capsaicin, Concentration mg/ml: 4 days. As for the experimental part: The solubility of capsaicin was determined for the following vehicles by adding an excess of capsaicin and determining the saturation solubility by UV analysis of the supernatant.
Aliquots of 5 ml of each vehicle were dispensed into vials in duplicate and excess capsaicin added equivalent to 5 mg/ml. A small magnetic stirrer bar was introduced into vials containing the gel vehicle and mixed for approximately 5 minutes to disperse the capsaicin. All vials were sonicated for a total of 20 minutes maintaining the temperature below 25° C. The vials were stirred for a further hour.
One vial from each formulation was placed at 25° C./60% RH and one vial from each formulation was placed on a shaker at 2-8° C.
Vials were removed from 25° C./60% RH after storage for 4 days. Vials stored at 2-8° C. were removed from the shaker after storage for 4 days and returned to 2-8° C. to equilibrate further before being removed after storage for a total of 7 days.
A reference solution containing capsaicin 0.06 mg/ml in methanol was prepared. Samples were centrifuged for 20 minutes at 15000 rpm. The resultant supernatant from each vial was carefully transferred to fresh vials. The supernatant from each sample was diluted 1 in 50 with methanol and analyzed by UV at 280 nm using matched quartz cuvettes versus a methanol blank.

The conditions of series [3]: fold more potent than capsaicin; cited from earlier work.
[4] abbreviates: pH 5.5, aqueous with cosolvent or surfactant or cyclodextrin, Indicative solubility of capsaicin, Concentration mg/ml.
[5] abbreviates: pH 7, aqueous with cosolvent or surfactant or cyclodextrin, Indicative solubility of capsaicin, Concentration mg/ml.

≈ marks a conversion by molar mass, not a printed value.

A word on the solubility: it is how much of the substance goes into solution per volume. `COc1cc(CNC(=O)CCCC/C=C/C(C)C)ccc1O` [Capsaicin, N-(4-hydroxy-3-methoxybenzyl)-8-methylnon-trans-6-enamide]: the solubility was ~1000 µg/mL in “physchem [1]” (aqueous with cosolvent or surfactant or cyclodextrin, increase of capsaicin solubility for each 1% increase in Tween 80) and 160000 µg/mL in the series “physchem [1]” (organic solvent or mixture, Capsaicin Solubility (mg/ml)). The solubility at 7 days was 2200 µg/mL (≈ 7.2 mM) in “physchem [2]” (setting [4]) and 2000 µg/mL (≈ 6.55 mM) in “physchem [2]” (setting [5]). In addition, the solubility at 4 days in “physchem [2]” (aqueous with cosolvent or surfactant or cyclodextrin, solubility of capsaicin gel formulations) was 2000 µg/mL (≈ 6.55 mM); in the series “physchem [2]” (setting [4]) it was 2200 µg/mL (≈ 7.2 mM); in the series “physchem [2]” (setting [5]) it was 2100 µg/mL (≈ 6.88 mM); in the series “physchem [2]” (pH 7, aqueous with cosolvent or surfactant or cyclodextrin, capsaicin solubility in isotonic gel vehicles) it was ~2000 µg/mL (≈ 6.55 mM). Further, the “Indicative solubility of capsaicin, Concentration mg/ml” value in “physchem [2]” (pH 5.5) came out at 2.1 mg/mL; in “physchem [2]” (pH 7), 1.9 mg/mL. Moreover, the “capsaicin concentration in gel formulations” value in the series “physchem [2]” (gel formulations stored at 2-8° C.) came to 2 mg/mL.
For the compound `C=C(C)[C@]12C[C@@H](C)[C@@]34O[C@](Cc5ccccc5)(O[C@@H]1[C@@H]3C=C(COC(=O)Cc1ccc(O)c(OC)c1)C[C@]1(O)C(=O)C(C)=C[C@@H]41)O2` [Resiniferatoxin], the “potency relative to capsaicin” value in series [3] is 103-104 fold.
